In experiment [1] the target is T1, K48-Ub2 (Homo sapiens, UniProt P0CG47).
T1 construct: solid phase peptide synthesis of Ub monomers (modified as required); made in house; host or cells: total chemical synthesis (SPPS, isopeptide ligation, desulfurization)
Put plainly: SPR binding of cyclic peptides to K48-linked di-ubiquitin. For orientation: Surface plasmon resonance follows binding to a sensor surface in real time, without labels.
Protocol: The interactions between cyclic peptides: U2i, U2ii, U4i, U4ix and Ub1, ^K48Ub2 and ^K48Ub4, were determined using BIACORE T100 instrument (GE healthcare) equipped with a biotin CAPture kit Series S chip. The buffer in all experiments contained 50 mM HEPES, pH 7.3, 150 mM NaCl, 0.05% Tween20, 2 mM DTT with 0.2% DMSO. Biotinylated Ub1, ^K48Ub2 and ^K48Ub4 were loaded to approximately equal molar amounts on the SPR chip, and various concentrations of cyclic peptides were flowed over at 100 μL/sec for 120 sec, before initiation of dissociation by flowing buffer over at 100 μL/sec for further 700 sec. Traces were fit to the simplest, two-state model for binding. Association was fit to a single exponential assuming pseudo-first order conditions, whereas the dissociation trace was fit to single exponential plus a drift term.
Each peptide was flowed over Ub1, ^K48Ub2 and ^K48Ub2 immobilized on SPR chips.

The target of a further experiment is T2, ^K48Ub4 (Homo sapiens, UniProt P0CG47).
T2 construct: solid phase peptide synthesis of Ub monomers (modified as required); made in house
Put plainly: SPR binding of cyclic peptides to K48-linked tetra-ubiquitin. As to the method: Surface Plasmon Resonance (SPR)
The interactions between cyclic peptides: U2i, U2ii, U4i, U4ix and Ub1, ^K48Ub2 and ^K48Ub4, were determined using BIACORE T100 instrument (GE healthcare) equipped with a biotin CAPture kit Series S chip. The buffer in all experiments contained 50 mM HEPES, pH 7.3, 150 mM NaCl, 0.05% Tween20, 2 mM DTT with 0.2% DMSO. Biotinylated Ub1, ^K48Ub2 and ^K48Ub4 were loaded to approximately equal molar amounts on the SPR chip, and various concentrations of cyclic peptides were flowed over at […] for 120 sec, before initiation of dissociation by flowing buffer over at […] for further 700 sec. Traces were fit to the simplest, two-state model for binding. Association was fit to a single exponential assuming pseudo-first order conditions, whereas the dissociation trace was fit to single exponential plus a drift term. Finally, due to the poor quality of the traces for U4ix binding ^K48Ub2, the amplitude of the association kinetic trace at different concentrations of peptide was fit to estimate the lower bound for KD.
Each peptide was flowed over Ub1, ^K48Ub2 and […] immobilized on SPR chips. There was no detectable binding to Ub1 for any of the peptides, as expected, as Ub1 binding was explicitly selected against during the RaPID protocol. […] However, Ub2i and Ub2ii also strongly bound ^K48Ub4, with a low apparent KD and an increased SPR response (FIG. 1E). This was consistent with a higher stoichiometry of binding to the tetramer, which could be explained by additional binding sites in ^K48Ub4. Indeed, the ^K48Ub2 structure can be superimposed twice on the ^K48Ub4 crystal structure (FIG. 10). […] However, similar to Ub2i and Ub2ii, Ub4i also bound ^K48Ub2. This was perhaps unsurprising, given the high sequence identity between Ub4i and Ub2i.

The test system of experiment [2] is USP2. Put plainly: In vitro deubiquitination assay, USP2 with K48-linked di-Ub. The class given is biochemical. To be noted: di-Ub as the substrate. How it is done: (§1) In Vitro Deubiquitination Assay
(§2) In vitro deubiquitination reactions were performed in a Tris buffer (50 mM TRIS, 1 mM TCEP, pH 7.7), containing 2 μM ^K48Ub2/4, then the specific DUB (50 mM Tris, 0.5 mM EDTA, 1 mM TCEP and 0.5 mg/ml ovalbumin, pH 7.5) was added. The reaction mixtures were incubated at 37° C. and at the indicated time points the reactions were stopped by taking aliquots and mixed them with 3× sample buffer and boiling. The same amounts were loaded on 14% SDS-PAGE, electro-blotted to nitrocellulose membrane and probed with an anti-Ub antibody. Bands were quantified with Image Quant LAS 4000 (GE Healthcare).
(§3) The inventors further chose to examine the effect of these cyclic peptides on two DUBs: OTUB1, a K48-linkage chain specific DUB, and USP2, which cleaves most Ub chains without specificity, using K48-linked di- and tetra-Ub chains as substrates.

In another experiment the target is T3, ^K63Ub2 (Homo sapiens, UniProt P0CG47, K63R).
T3 construct: Recombinant Ub monomers carrying chain-terminating mutations; made in house
Put plainly: NMR titration with K63-linked di-Ub. The class given is binding. To be noted: up to 2:1 peptide:Ub2. How it is done:
(§4) All NMR studies were performed on Bruker Avance III 600 MHz spectrometer equipped with TCI cryoprobe. The sample temperature was set to 23° C. for Ub2ii binding studies or 25° C. for Ub4ix studies, unless indicated otherwise. The protein (monomeric Ub or Ub chains) samples were prepared in 20 mM sodium phosphate buffer (pH 6.8) containing 5-10% D20 and 0.02% (w/v) NaN3. The Ub2ii peptide was dissolved in deuterated DMSO (up to 20 mM concentration) and titrated in μL amounts into 50 μM ^15N-Ub^WT or K63-linked Ub2 (^15N-enriched in the distal domain) to two molar equivalents. Ub2ii was titrated into 100 μM solutions of proximally- or distally-^15N-enriched ^K48Ub2 to 1:1 or 1:1.3 molar ratio, respectively, as well as into 200 μM ^K48Ub2 with the ^13C/^15N-enriched proximal or distal Ub unit. Ub4ix titration into K48-linked Ub2, Ub3, and Ub4 was performed in a similar manner, with the starting Ub chain concentration of 200 μM; the chain/peptide molar ratio at the endpoint varied from 1:1 (Ub2) to 1:1.5 or 1:2 for Ub3 and Ub4. Several of these titrations were performed twice and at differing protein concentrations, to verify the reproducibility of the observed spectral changes. Separately, a similar amount of DMSO was added to ^15N-labeled Ub to verify that the presence of DMSO in the peptide-containing stock solution had negligible effect on Ub spectra. […]

The target of the next experiment is T4, monomeric Ub (Homo sapiens, UniProt P0CG47).
T4 construct: made in house
Put plainly: NMR titration with monomeric Ub. To be noted: compared with ^K48Ub2. Type of experiment: binding. As to the method:
as §4

A further experiment deals with 26S proteasome. Put plainly: In vitro proteasome degradation assay of HA-α-globin-K48-linked tetra-Ub. The class given is biochemical. As to conditions: 5.3 μM peptide.
The subject of experiment [3] is K48-linked Ub elongation on Ring1B. Put plainly: In vitro K48-linked Ub elongation on Ring1B (western blot). The class given is biochemical.
Experiment [4] deals with USP2. Put plainly: In vitro deubiquitination assay, USP2 with K48-linked tetra-Ub. The class given is biochemical. To be noted: tetra-Ub chain, after removal of the distal Ub (tri-Ub). As to the method:
as §1, §2, §3

Experiment [5] concerns the target T1, K48-Ub2. Put plainly: Deep mutational scanning of J08_mClBz (relative enrichment, MiSeq). The class given is binding. As to conditions: single mutation of J08_mClBz. The text has this:
FIG. 36 is a bar graph showing relative enrichment (log2 E) versus single mutations based on deep scanning (Step 2b in FIG. 34B). E=Positive fraction %/Input fraction % according MiSeq sequencing results. Bars of positive values and negative values indicate potentially favorable and unfavorable mutations, respectively.
Mutation of Leu6 seemed highly flexible which allowed its replacement by either nonpolar or polar residues. […] Based on this information, the inventors prepared nine peptides containing F9Y mutations.

Where [6] appears, read: SPR, target ^K48Ub2, read-out: KD.
The mark [7] stands for this setting: range stated in the description, 'as exemplified', read-out: dimeric Ub binding affinity KD.
Where [8] appears, read: SPR, target ^K48Ub4, read-out: KD.
Setting [9] is: range stated in the description, 'as exemplified', read-out: tetrameric Ub binding affinity KD.

The results in this text go back to patent publication US12084523B2, “Ubiquitin high affinity cyclic peptides and methods of use thereof” (TECHNION RESEARCH & DEVELOPMENT FOUNDATION LIMITED, priority 2018, dated 2024).

Where two headings read alike, the source gives them in different places. No end group written: not given here.

As a reminder, the koff is a measure of how fast the partners let go of each other. A lower koff goes with a long-lived complex. By kon is commonly meant a measure of how fast the partners come together. A low value points to slower complex formation.

Regarding M*GWFDDLYLFVAY-CG [J08_mClBz], on K48-Ub2 [1] (compared with U4i (chloroacetyl-cyclized peptide of same sequence)), the “fold improvement of binding affinity” value came out at 9 fold.

For `CC(C)C[C@@H]1NC(=O)[C@H](Cc2ccc(O)cc2)NC(=O)[C@H](Cc2ccc(O)cc2)NC(=O)[C@H](Cc2ccc(O)cc2)NC(=O)[C@H](CCC(=O)O)NC(=O)[C@H](CCCNC(=N)N)NC(=O)[C@H](CC(=O)O)NC(=O)[C@H](Cc2ccc(O)cc2)NC(=O)[C@H](Cc2c[nH]c3ccccc23)NC(=O)[C@@H](Cc2c[nH]c3ccccc23)NC(=O)CSC[C@@H](C(=O)NCC(N)=O)NC(=O)CNC(=O)[C@H](Cc2ccc(O)cc2)NC(=O)CNC1=O` [Ub2ii], the koff worked out at 0.016 s⁻¹ on K48-Ub2 [1] (SPR, target ^K48Ub2) and 0.012 s⁻¹ at ^K48Ub4 (SPR, target ^K48Ub4). In addition, the kon on K48-Ub2 [1] (SPR, target ^K48Ub2) is 489000 M⁻¹ s⁻¹; at ^K48Ub4 (SPR, target ^K48Ub4), 877000 M⁻¹ s⁻¹. Further, the Kd on K48-Ub2 [1] (setting [6]) was 33 ± 8 nM; at K48-Ub2 [1] (setting [7]) it was 30 to 50 nM; on ^K48Ub4 (setting [8]) it was 14 nM; at ^K48Ub4 (setting [9]), 10 to 20 nM. Besides, the “inhibition of USP2” value with USP2 [2] was ~40%. Further, on ^K63Ub2, the “binding to K63-linked di-Ub (NMR)” value is “non-specific and much weaker”. In addition, the “binding to monomeric Ub (NMR)” value at monomeric Ub is “much weaker binding”.

Take *FQYWOYATGVCG [Ub4_a]: the “inhibition of proteasomal degradation of α-globin-K48-linked tetra-Ub” value (“inhibition … of α-globin-K48-linked tetra-Ub” for short) in the experiment on 26S proteasome is recorded as “clear inhibition”. In addition, in [3], the “inhibition of K48-linked Ub elongation on Ring1B” value was “inhibit”.

As to `CC(C)C[C@@H]1NC(=O)[C@H](CC(=O)O)NC(=O)[C@H](CC(=O)O)NC(=O)[C@H](Cc2ccccc2)NC(=O)[C@H](Cc2c[nH]c3ccccc23)NC(=O)CNC(=O)[C@@H](Cc2c[nH]c3ccccc23)NC(=O)CSC[C@@H](C(=O)NCC(N)=O)NC(=O)[C@H](Cc2ccc(O)cc2)NC(=O)[C@H](C)NC(=O)[C@H](C(C)C)NC(=O)[C@H](Cc2ccccc2)NC(=O)[C@H](CC(C)C)NC(=O)[C@H](Cc2ccc(O)cc2)NC1=O` [Ub4i], the off-rate constant (koff) is 0.024 s⁻¹ at K48-Ub2 [1] (SPR, target ^K48Ub2) and 0.011 s⁻¹ at ^K48Ub4 (SPR, target ^K48Ub4). Besides, the kon stood at 262000 M⁻¹ s⁻¹ at K48-Ub2 [1] (SPR, target ^K48Ub2) and 407000 M⁻¹ s⁻¹ on ^K48Ub4 (SPR, target ^K48Ub4). In addition, the Kd is 91 nM on K48-Ub2 [1] (setting [6]); 85 to 115 nM at K48-Ub2 [1] (setting [7]); 90 nM at K48-Ub2 [1] (text and figure legend, K48-Ub2, read-out: KD / binding affinity); 26 nM at ^K48Ub4 (setting [8]); 20 to 35 nM on ^K48Ub4 (setting [9]). For the same compound, the “inhibition of USP2” value in the experiment with USP2 [2] was ~40%; in the experiment on USP2 [4] it was “strong inhibition”.

Take “linear Ub4ix: uncyclized/linear form of Ub4ix (WLYLDDSGDWWICG; not fully specified (residue 1))”: the “inhibition … of α-globin-K48-linked tetra-Ub” value with 26S proteasome was “no inhibition”.

For *GWFDDLYLYVAYC [J08_mClBz_F9Y], the “fold improvement of binding affinity” value on K48-Ub2 [1] (from J08_mClBz) is reported as 17 fold. For the same compound, the relative enrichment ratio on K48-Ub2 [5] is reported as > 5.

Turning to *FQLWOHAIALCG [Ub4_e], in the experiment with 26S proteasome, the “inhibition … of α-globin-K48-linked tetra-Ub” value is “clear inhibition”. For the same compound, in [3], the “inhibition of K48-linked Ub elongation on Ring1B” value is reported as “inhibit”.

Turning to `CC(C)C[C@@H]1NC(=O)[C@H](CC(N)=O)NC(=O)[C@H](CC(=O)O)NC(=O)[C@H](Cc2ccccc2)NC(=O)[C@H](Cc2c[nH]c3ccccc23)NC(=O)CNC(=O)[C@@H](Cc2c[nH]c3ccccc23)NC(=O)CSC[C@@H](C(=O)NCC(N)=O)NC(=O)[C@H](Cc2c[nH]cn2)NC(=O)[C@H]([C@@H](C)O)NC(=O)[C@H](C(C)C)NC(=O)[C@H](Cc2ccc(O)cc2)NC(=O)[C@H](Cc2c[nH]c3ccccc23)NC(=O)[C@H](Cc2ccc(O)cc2)NC1=O` [Ub2i], the off-rate (koff) came out at 0.024 s⁻¹ on K48-Ub2 [1] (SPR, target ^K48Ub2) and 0.011 s⁻¹ on ^K48Ub4 (SPR, target ^K48Ub4). In addition, the kon came out at 593000 M⁻¹ s⁻¹ at K48-Ub2 [1] (SPR, target ^K48Ub2) and 779000 M⁻¹ s⁻¹ on ^K48Ub4 (SPR, target ^K48Ub4). For the same compound, the Kd at K48-Ub2 [1] (setting [6]) was 40 ± 12 nM; on K48-Ub2 [1] (setting [7]), 20 to 40 nM; at ^K48Ub4 (setting [8]), 14 nM; on ^K48Ub4 (setting [9]) it was 15 to 25 nM. In the experiment with USP2 [2], the “inhibition of USP2” value is listed as ~40%.
